Data reported in patent US9975902B2, “Compounds for the inhibition of cyclophilins and uses thereof” (Merck Patent GmbH, priority 2016, dated 2018).

Key:
[1] = molecular target: T1, CypD (Homo sapiens (Human), UniProt P30405); assay: SPR binding; settings: steady state KD, read-out: SPR CypD (KDss)
Description: Binding was confirmed on an SPR surface using a protocol adapted from Mori et al., J. Biomolecular Screening, 2009, p.

[2] = molecular target: T1, CypD; assay: CypD binding assay (competition fluorescence polarisation with fluorescine labelled cyclosporin)
Description: The binding capacity of the compounds was measured using a competition Fluorescence-Polarisation based assay with fluorescine labelled cyclosporin. The protocol used was adapted from Hausch et al, Med Chem lett 2010, p 536.

T1 sequence (P30405 30-207): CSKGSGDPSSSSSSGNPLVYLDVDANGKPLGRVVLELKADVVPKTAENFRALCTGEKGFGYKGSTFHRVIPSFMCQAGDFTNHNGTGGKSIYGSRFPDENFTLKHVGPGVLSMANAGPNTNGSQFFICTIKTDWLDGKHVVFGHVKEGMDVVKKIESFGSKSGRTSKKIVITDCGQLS

Row | SMILES | Kd [1] [µM] | IC50 [2] [µM]
1 | O=C(CN1C(=O)[C@@H]2[C@H]3CC[C@H](C3)[C@@H]2C1=O)NCc1ccc2c(c1)[C@H]1C[C@@H](N2)[C@H](O)CO1 [Compound 1, 2-exo-(3,5-Dioxo-4-aza-tricyclo[5.2.1.02,6]dec-4-yl)-N-((1R,9R,10S)-10-hydroxy-12-oxa-8-aza-tricyclo[7.3.1.02,7]trideca-2(7),3,5-trien-4-ylmethyl)-acetamide] | < 10 | < 10
2 | O=C(CN1C(=O)[C@@H]2[C@@H]3CC[C@@H](C3)[C@@H]2C1=O)NCc1ccc2c(c1)[C@H]1C[C@@H](N2)[C@H](O)CO1 [Compound 3] | < 10 | < 10
3 | Nc1ccc(C2(NC(=O)CN3C(=O)[C@@H]4[C@@H]5CC[C@@H](C5)[C@@H]4C3=O)CC2)cc1 [Compound 5, 2-endo-(3,5-Dioxo-4-aza-tricyclo[5.2.1.02,6]dec-4-yl)-N-[1-(4-amino-phenyl)-cyclopropyl]-acetamide] | 10 to 200 | 10 to 200
4 | CCN1Cc2cc(CNC(=O)CN3C(=O)[C@@H]4[C@H]5CC[C@H](C5)[C@@H]4C3=O)ccc2NCCC1=O [Compound 6] | 10 to 200 | 10 to 200
5 | Nc1ccc(CCNC(=O)CN2C(=O)C3CCCCC3C2=O)cc1 (stereo not drawn) [Compound 7, N-[2-(4-Amino-phenyl)-ethyl]-2-(1,3-dioxo-octahydro-isoindol-2-yl)-acetamide] | 10 to 200 | 10 to 200
6 | Nc1ccc(CNC(=O)CN2C(=O)C3C4CCC(O4)C3C2=O)cc1 (stereo not drawn) [Compound 8, N-(4-Amino-benzyl)-2-(3,5-dioxo-10-oxa-4-aza-tricyclo[5.2.1.02,6]dec-4-yl)-acetamide] | 10 to 200 | 10 to 200
7 | O=C(CN1C(=O)[C@@H]2[C@@H]3CC[C@@H](C3)[C@@H]2C1=O)NCCc1ccc2c(c1)CCCN2 [Compound 9, 2-endo-(3,5-Dioxo-4-aza-tricyclo[5.2.1.02,6]dec-4-yl)-N-[2-(1,2,3,4-tetrahydro-quinolin-6-yl)-ethyl]-acetamide] | 10 to 200 | 10 to 200
8 | Nc1ccc(CCNC(=O)CN2C(=O)[C@@H]3[C@@H]4CC[C@@H](C4)[C@@H]3C2=O)cc1 [Compound 10, N-endo-[2-(4-Amino-phenyl)-ethyl]-2-(3,5-dioxo-4-aza-tricyclo[5.2.1.02,6]dec-4-yl)-acetamide] | 10 to 200 | 10 to 200
9 | CCC1Oc2cc(C(C)NC(=O)CN3C(=O)[C@@H]4[C@@H]5CC[C@@H](C5)[C@@H]4C3=O)ccc2NC1=O (stereo partly drawn) [Compound 11, 2-endo-(3,5-Dioxo-4-aza-tricyclo[5.2.1.02,6]dec-4-yl)-N-[1-(2-ethyl-3-oxo-3,4-dihydro-2H-benzo[1,4]oxazin-7-yl)-ethyl]-acetamide] | 10 to 200 | 10 to 200
